Measurements published in patent publication US12552834B2, “Selective MENA binding peptides” (MASSACHUSETTS INSTITUTE OF TECHNOLOGY, priority 2021, dated 2026).

Assays:
VASP or EVL EVH1 domains = test: BLI, paralog selectivity: ENAH versus VASP or EVL EVH1 domains; type: binding
Protocol: Next, we examined whether residues flanking FP4 (SEQ ID NO:46) SLiMs impact paralog specificity.
All BLI experiments were performed with 2 replicates on an Octet Red96 instrument (ForteBio). Biotinylated, 6×-His-Sumo-peptide fusions purified in small scale were diluted into BLI buffer (PBS pH 7.4, 1% BSA, 0.1% Tween-20, 1 mM DTT) and immobilized onto streptavidin-coated tips (ForteBio) until loading reached a response level between 0.5-0.6 nm. The loaded tips were immersed in a solution of ENAH EVH1 domain at a relevant dilution series in BLI buffer at an orbital shake speed of 1000 rpm and run until the binding signal plateaued. ENAH-bound tips were subsequently placed into BLI buffer only for dissociation and run until the binding signal plateaued. KD values were obtained through steady state analysis. Briefly, the data were corrected for background by subtracting the signal obtained when doing the same experiment using a biotinylated, 6×-His Sumo instead of an immobilized ENAH-binding peptide. The association phases were then fit to a one-phase binding model in Prism and the equilibrium steady-state binding signal values from that fit were plotted against ENAH concentration and fit to a single-site specific binding model in Prism to obtain dissociation constants. Errors reported are the standard deviation of two replicates. […]

ENAH EVH1 domain = target: T1, ENAH EVH1 domain (Homo sapiens, UniProt Q8N8S7); test: Biolayer interferometry (BLI), SUMO-peptide fusions binding monomeric ENAH EVH1 domain WT
T1 construct: places a 6×-His and TEV cleavage tag N-terminal to the EVH1 domain; 6×-His + TEV cleavage site (N, cleaved yes); made in house; host or cells: E. coli Rosetta2(DE3)
T1 sequence (Q8N8S7 with tags, fused parts or gaps): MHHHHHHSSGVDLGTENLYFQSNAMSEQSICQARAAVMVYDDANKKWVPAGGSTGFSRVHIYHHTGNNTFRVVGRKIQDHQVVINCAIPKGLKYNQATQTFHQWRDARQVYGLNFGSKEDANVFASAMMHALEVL
Protocol: All BLI experiments were performed with 2 replicates on an Octet Red96 instrument (ForteBio). […] The loaded tips were immersed in a solution of ENAH EVH1 domain at a relevant dilution series in BLI buffer at an orbital shake speed of 1000 rpm and run until the binding signal plateaued. ENAH-bound tips were subsequently placed into BLI buffer only for dissociation and run until the binding signal plateaued. KD values were obtained through steady state analysis. […] The association phases were then fit to a one-phase binding model in Prism and the equilibrium steady-state binding signal values from that fit were plotted against ENAH concentration and fit to a single-site specific binding model in Prism to obtain dissociation constants. Errors reported are the standard deviation of two replicates.
Monomeric ENAH, EVL, or VASP EVH1 domains for use in BLI and ITC experiments, or ENAH EVH1-peptide fusions for crystallography was cloned into a pMCSG7 vector (gift from Frank Gertler, MIT), which places a 6×-His and TEV cleavage tag N-terminal to the EVH1 domain. These constructs were transformed into Rosetta2(DE3) cells and grown in 2×YT media supplemented with 100 μg/mL ampicillin. Cells were grown while shaking at 37° C. to an O.D. 600 of 0.5-0.7, and then cooled on ice for at least 20 minutes. They were then induced with 0.5 mM IPTG and grown while shaking at 18° C. overnight. Induced cultures were resuspended in 25 mL of wash buffer (20 mM Hepes pH 7.6, 500 mM NaCl, 20 mM imidazole) and frozen at −80° C. overnight. The next day, cultures were sonicated, spun down, and applied to Ni-NTA acid agarose resin equilibrated with wash buffer, and washed as described above. Samples were eluted in 10 mL elution buffer (20 mM Hepes pH 7.6, 500 mM NaCl, […]). TEV protease was added to the elution at a ratio of 1 mg TEV:50 mg tagged protein along with 1 mM DTT. This mixture was dialyzed against TEV cleavage buffer (50 mM Hepes pH 8.0, 300 mM NaCl, 5 mM DTT, 1 mM EDTA) at 4° C. overnight and then applied over Ni-NTA acid agarose resin equilibrated with wash buffer. The column was washed with 2×8 mL of wash buffer, and the resulting flow-through and washes were pooled, concentrated, and applied to an S75 26/60 column equilibrated in gel filtration buffer (20 mM Hepes pH 7.6, 150 mM NaCl, 1 mM DTT, 1% glycerol). Purity was verified by SDS-PAGE and combined fractions were concentrated and flash frozen at −80° C.
Rosetta2(DE3) cells (Novagen) were transformed with pDW363 vector encoding 6×-His-SUMO-peptide fusions and grown in 20 mL of LB+100 μg/mL Ampicillin+0.050 mM D-(+)-Biotin dissolved in DMSO for in vivo biotinylation. Cells were grown to an OD of 0.5-0.7 with 1 mM IPTG and induced for 4-6 hours at 37° C. Pellets were spun down and frozen and −80° C. for at least 2 hours. These pellets were then thawed and resuspended in B-PER reagent (ThermoFisher) at 4 mL/gram of pellet with 0.2 mM PMSF. This suspension was shaken at 25° C. for 10-15 minutes, and then spun down at 15,000 g for 10 minutes. The supernatant was applied to 250 μL of Ni-NTA acid agarose resin equilibrated in 20 mM Tris pH 8.0, 500 mM NaCl, 20 mM Imidazole (Buffer A), and then washed 3 times with 1 mL of this buffer. Peptides were eluted in 1.8 mL of 20 mM Tris pH 8.0, 500 mM NaCl, 300 mM imidazole to use in BLI assays.

[1] = tested on: EVL Y63C, I26A and VASP W89Y, L15V; test: BLI, binding to EVL and VASP hydrophobic core mutants

| tighter binding than PCARE B (ENAH EVH1 domain) [fold] | slower dissociation than dual-motif peptide LPP (ENAH EVH1 domain; BLI off-rate) [fold] | SMILES | preference / selectivity for ENAH over VASP or EVL EVH1 domains (VASP or EVL EVH1 domains) | binding to EVL Y63C, I26A and VASP W89Y, L15V, in words [1] |
| --- | --- | --- | --- | --- |
| ~7 | ~100 | CSCC[C@H](NC(=O)[C@H](CC(C)C)NC(=O)[C@@H](NC(=O)[C@H](CCC(=O)O)NC(=O)[C@H](CCSC)NC(=O)[C@@H]1CCCN1C(=O)[C@@H]1CCCN1C(=O)[C@@H]1CCCN1C(=O)[C@@H]1CCCN1C(=O)[C@H](CC(C)C)NC(=O)[C@H](Cc1c[nH]cn1)NC(=O)[C@H](CCC(=O)O)NC(=O)[C@H](CC(C)C)NC(=O)[C@@H](N)CC(N)=O)C(C)C)C(=O)N[C@@H](CC(=O)O)C(=O)N[C@@H](CCCCN)C(=O)N[C@@H](CO)C(=O)N[C@@H](Cc1ccccc1)C(=O)N[C@@H](C)C(=O)N[C@@H](CO)C(=O)N[C@@H](CC(C)C)C(=O)N[C@@H](CCC(=O)O)C(=O)N[C@@H](CO)C(=O)NCC(=O)N[C@@H](CO)C(=O)NCC(=O)N[C@@H](CO)C(=O)N1CCC[C@H]1C(=O)N1CCC[C@H]1C(=O)N1CCC[C@H]1C(=O)N1CCC[C@H]1C(=O)N1CCC[C@H]1C(=O)N[C@@H](Cc1ccccc1)C(=O)O [PCARE-Dual] | 400-600 fold | – |
| – | – | CSCC[C@H](NC(=O)[C@H](CC(C)C)NC(=O)[C@@H](NC(=O)[C@H](CCC(=O)O)NC(=O)[C@H](CCSC)NC(=O)[C@@H]1CCCN1C(=O)[C@@H]1CCCN1C(=O)[C@@H]1CCCN1C(=O)[C@@H]1CCCN1C(=O)[C@H](CC(C)C)NC(=O)[C@H](Cc1c[nH]cn1)NC(=O)[C@H](CCC(=O)O)NC(=O)[C@H](CC(C)C)NC(=O)[C@@H](N)CC(N)=O)C(C)C)C(=O)N[C@@H](CC(=O)O)C(=O)N[C@@H](CCCCN)C(=O)N[C@@H](CO)C(=O)N[C@@H](Cc1ccccc1)C(=O)N[C@@H](C)C(=O)N[C@@H](CO)C(=O)N[C@@H](CC(C)C)C(=O)N[C@@H](CCC(=O)O)C(=O)N[C@@H](CO)C(=O)O [PCARE B] | – | not sufficient to confer high affinity of binding |
